Results from publication PMC12491383, “Organ and tumour dosimetry of ^177Lu-rhPSMA-10.1, a novel PSMA-targeted therapy: results from a Phase I trial” (European Journal of Nuclear Medicine and Molecular Imaging, 2025).
Several values for one entry are separate records, joined by “and”; a condition that tells them apart may be missing. Equal values may be shown once.

Columns and labels:
[1] = parameters: method as in PMID 37770108; conditions: within the same patient; compassionate use program in Germany; cited from earlier work
[2] = Venous whole-blood radioactivity measurement (gamma counter): blood clearance and red marrow absorbed dose; type: in vivo, human
Description: To assess the biodistribution and kinetics of radioactivity in individual tissues, whole blood and imaging-based radiation dosimetry were performed. Venous blood samples for radioactivity measurement were collected within the 30 min prior to ^177Lu-rhPSMA-10.1 administration, and at approximately 30 min, 1.5-, 4-, 24- and 48-hours post-administration in all treatment cycles. Samples were collected from the contralateral arm to that of the ^177Lu-rhPSMA-10.1 injection. Whole-blood concentrations were measured using a calibrated gamma counter to estimate both red marrow absorbed doses and blood clearance over time. All measurements were decay-corrected to the time of sample collection.
(§1) All continuous data are expressed as the mean (standard deviation [SD]) unless otherwise stated. All blood- and image-based pharmacokinetic analyses were conducted in Python and Excel. Effective half-lives for organs and tumours were calculated using a mono-exponential fit to the washout phase of the time–activity data.

[3] = Image-based effective and biological half-lives (mono-exponential fit to washout phase); type: in vivo, human; conditions: all cycles; for Biological Half-life, Tumours / Effective Half-life, Tumours: anatomy-based method
Description: Multi-bed single-photon emission computed tomography (SPECT)/CT was conducted at 3-, 24-, 48- and 168-hours post-^177Lu-rhPSMA-10.1 administration in each treatment cycle for the estimation of organ and tumour absorbed doses in each patient. Prior to commencement of the study, each investigating site was required to complete a calibration of their dose calibrator and SPECT/CT system to ensure harmonised quantification of the imaging data. Quantitative reconstructions and all dosimetry analyses were carried out centrally by an independent dosimetry vendor (Radiopharmaceutical Imaging and Dosimetry LLC, Baltimore, MD).
as §1
Based on exponential fits to image-derived time–activity washout data in individual tissues (Fig. 5), the biological and effective half-lives of ^177Lu-rhPSMA-10.1 in tumours and normal organs were estimated using the mean data from all patients across all cycles (Supplemental Table S3).
^aTumour half-life values were derived from the anatomy-based method and averaged across all tumours and cycles (n = 137).

Question: With `CC(C)(C)[Si](F)(c1ccc(C(=O)NC[C@@H](NC(=O)CN2CCN(CC(=O)[O-])CCN(CC(=O)[O-])CCN(CC(=O)[O-])CC2)C(=O)N[C@H](CCCCNC(=O)CCC(=O)NCCC[C@@H](NC(=O)CC[C@H](NC(=O)N[C@@H](CCC(=O)O)C(=O)O)C(=O)O)C(=O)O)C(=O)O)cc1)C(C)(C)C.[177Lu+3]` [^177Lu-rhPSMA-10.1] as the compound, how does the “Radiation dose to the tumour relative to ^177Lu-PSMA-I&T, fold greater” value [1] read?
Answer: up to 8 fold

Question: And the “Mean (SD) Absorbed Dose, bone marrow (blood-based)” value ([2]; All Cycles)?
Answer: 0.032 Gy/GBq and 0.032 (0.010) Gy/GBq

Question: What about the “Mean (SD) Absorbed Dose, bone marrow (blood-based)” value ([2]; Cycle 1, 13 patients) of the same compound?
Answer: 0.031 (0.010) Gy/GBq

Question: What about the “Effective half-life in blood” value ([2]; venous whole blood, based on mean patient levels, mean (SD)) of the same compound?
Answer: 2.2 h

Question: What about the “Biological Half-life, Kidneys” value ([3]; Mean of 13 patients) of the same compound?
Answer: 44.9 hours

Question: And the “Biological Half-life, Salivary Glands” value ([3]; Mean of 13 patients)?
Answer: 64.6 hours

Question: What about the “Effective Half-life, Kidneys” value ([3]; Mean of 13 patients) of the same compound?
Answer: 33.7 h

Question: And the “Effective Half-life, Salivary Glands” value ([3]; Mean of 13 patients)?
Answer: 45.4 h

Question: And the “Biological Half-life, Tumours” value ([3]; Mean of 13 patients)?
Answer: 338 hours and 337.8 hours

Question: And the “Effective Half-life, Tumours” value ([3]; Mean of 13 patients)?
Answer: 91.4 h and 91 h

Question: And the “Biological Half-life, Kidneys” value ([3]; Patient 1)?
Answer: 123.6 hours

Question: And the “Biological Half-life, Salivary Glands” value ([3]; Patient 1)?
Answer: 120.2 hours

Question: And the “Effective Half-life, Kidneys” value ([3]; Patient 1)?
Answer: 69.6 h

Question: What about the “Effective Half-life, Salivary Glands” value ([3]; Patient 1) of the same compound?
Answer: 68.6 h

Question: What about the “Biological Half-life, Tumours” value ([3]; Patient 1) of the same compound?
Answer: 1692.5 hours

Question: And the “Effective Half-life, Tumours” value ([3]; Patient 1)?
Answer: 145.8 h

Question: What about the “Biological Half-life, Kidneys” value ([3]; Patient 2) of the same compound?
Answer: 52.3 hours

Question: And the “Biological Half-life, Salivary Glands” value ([3]; Patient 2)?
Answer: 54.2 hours

Question: And the “Effective Half-life, Kidneys” value ([3]; Patient 2)?
Answer: 39.4 h

Question: What about the “Effective Half-life, Salivary Glands” value ([3]; Patient 2) of the same compound?
Answer: 40.5 h

Question: And the “Biological Half-life, Tumours” value ([3]; Patient 2)?
Answer: 68.8 hours

Question: What about the “Effective Half-life, Tumours” value ([3]; Patient 2) of the same compound?
Answer: 48.1 h

Question: And the “Biological Half-life, Kidneys” value ([3]; Patient 3)?
Answer: 47.5 hours

Question: And the “Biological Half-life, Salivary Glands” value ([3]; Patient 3)?
Answer: 67.5 hours

Question: And the “Effective Half-life, Kidneys” value ([3]; Patient 3)?
Answer: 36.6 h

Question: What about the “Effective Half-life, Salivary Glands” value ([3]; Patient 3) of the same compound?
Answer: 47.4 h

Question: What about the “Biological Half-life, Tumours” value ([3]; Patient 3) of the same compound?
Answer: 305.1 hours

Question: And the “Effective Half-life, Tumours” value ([3]; Patient 3)?
Answer: 104.8 h

Question: What about the “Biological Half-life, Kidneys” value ([3]; Patient 4) of the same compound?
Answer: 35.9 hours

Question: And the “Biological Half-life, Salivary Glands” value ([3]; Patient 4)?
Answer: 84.7 hours

Question: What about the “Effective Half-life, Kidneys” value ([3]; Patient 4) of the same compound?
Answer: 29.3 h

Question: And the “Effective Half-life, Salivary Glands” value ([3]; Patient 4)?
Answer: 55.3 h

Question: What about the “Biological Half-life, Tumours” value ([3]; Patient 4) of the same compound?
Answer: 124.9 hours

Question: And the “Effective Half-life, Tumours” value ([3]; Patient 4)?
Answer: 70.1 h

Question: And the “Biological Half-life, Kidneys” value ([3]; Patient 5)?
Answer: 34.6 hours

Question: And the “Biological Half-life, Salivary Glands” value ([3]; Patient 5)?
Answer: 54.0 hours

Question: And the “Effective Half-life, Kidneys” value ([3]; Patient 5)?
Answer: 28.5 h

Question: What about the “Effective Half-life, Salivary Glands” value ([3]; Patient 5) of the same compound?
Answer: 40.3 h

Question: And the “Biological Half-life, Tumours” value ([3]; Patient 5)?
Answer: 168.9 hours

Question: And the “Effective Half-life, Tumours” value ([3]; Patient 5)?
Answer: 82.1 h

Question: What about the “Biological Half-life, Kidneys” value ([3]; Patient 6) of the same compound?
Answer: 38.7 hours

Question: And the “Biological Half-life, Salivary Glands” value ([3]; Patient 6)?
Answer: 61.3 hours

Question: What about the “Effective Half-life, Kidneys” value ([3]; Patient 6) of the same compound?
Answer: 31.2 h

Question: And the “Effective Half-life, Salivary Glands” value ([3]; Patient 6)?
Answer: 44.3 h

Question: And the “Biological Half-life, Tumours” value ([3]; Patient 6)?
Answer: 282.5 hours

Question: And the “Effective Half-life, Tumours” value ([3]; Patient 6)?
Answer: 102.0 h

Question: And the “Biological Half-life, Kidneys” value ([3]; Patient 7)?
Answer: 33.9 hours

Question: What about the “Biological Half-life, Salivary Glands” value ([3]; Patient 7) of the same compound?
Answer: 57.1 hours

Question: And the “Effective Half-life, Kidneys” value ([3]; Patient 7)?
Answer: 27.9 h

Question: What about the “Effective Half-life, Salivary Glands” value ([3]; Patient 7) of the same compound?
Answer: 42.1 h

Question: And the “Biological Half-life, Tumours” value ([3]; Patient 7)?
Answer: 316.6 hours

Question: And the “Effective Half-life, Tumours” value ([3]; Patient 7)?
Answer: 106.1 h

Question: What about the “Biological Half-life, Kidneys” value ([3]; Patient 8) of the same compound?
Answer: 34.9 hours

Question: What about the “Biological Half-life, Salivary Glands” value ([3]; Patient 8) of the same compound?
Answer: 61.5 hours

Question: What about the “Effective Half-life, Kidneys” value ([3]; Patient 8) of the same compound?
Answer: 28.6 h

Question: What about the “Effective Half-life, Salivary Glands” value ([3]; Patient 8) of the same compound?
Answer: 44.4 h

Question: And the “Biological Half-life, Tumours” value ([3]; Patient 8)?
Answer: 611.3 hours

Question: And the “Effective Half-life, Tumours” value ([3]; Patient 8)?
Answer: 126.6 h

Question: What about the “Biological Half-life, Kidneys” value ([3]; Patient 9) of the same compound?
Answer: 32.3 hours

Question: What about the “Biological Half-life, Salivary Glands” value ([3]; Patient 9) of the same compound?
Answer: 47.7 hours

Question: What about the “Effective Half-life, Kidneys” value ([3]; Patient 9) of the same compound?
Answer: 26.8 h

Question: What about the “Effective Half-life, Salivary Glands” value ([3]; Patient 9) of the same compound?
Answer: 36.7 h

Question: What about the “Biological Half-life, Tumours” value ([3]; Patient 9) of the same compound?
Answer: 204.8 hours

Question: What about the “Effective Half-life, Tumours” value ([3]; Patient 9) of the same compound?
Answer: 89.7 h

Question: And the “Biological Half-life, Kidneys” value ([3]; Patient 10)?
Answer: 28.7 hours

Question: And the “Biological Half-life, Salivary Glands” value ([3]; Patient 10)?
Answer: 59.0 hours

Question: What about the “Effective Half-life, Kidneys” value ([3]; Patient 10) of the same compound?
Answer: 24.3 h

Question: And the “Effective Half-life, Salivary Glands” value ([3]; Patient 10)?
Answer: 43.1 h

Question: And the “Biological Half-life, Tumours” value ([3]; Patient 10)?
Answer: 170.2 hours

Question: And the “Effective Half-life, Tumours” value ([3]; Patient 10)?
Answer: 82.4 h

Question: And the “Biological Half-life, Kidneys” value ([3]; Patient 11)?
Answer: 35.3 hours

Question: And the “Biological Half-life, Salivary Glands” value ([3]; Patient 11)?
Answer: 61.7 hours

Question: And the “Effective Half-life, Kidneys” value ([3]; Patient 11)?
Answer: 28.9 h

Question: And the “Effective Half-life, Salivary Glands” value ([3]; Patient 11)?
Answer: 44.5 h

Question: And the “Biological Half-life, Tumours” value ([3]; Patient 11)?
Answer: 148.2 hours

Question: What about the “Effective Half-life, Tumours” value ([3]; Patient 11) of the same compound?
Answer: 76.8 h

Question: What about the “Biological Half-life, Kidneys” value ([3]; Patient 12) of the same compound?
Answer: 54.5 hours

Question: What about the “Biological Half-life, Salivary Glands” value ([3]; Patient 12) of the same compound?
Answer: 53.6 hours

Question: And the “Effective Half-life, Kidneys” value ([3]; Patient 12)?
Answer: 40.6 h

Question: And the “Effective Half-life, Salivary Glands” value ([3]; Patient 12)?
Answer: 40.1 h

Question: And the “Biological Half-life, Tumours” value ([3]; Patient 12)?
Answer: 152.4 hours

Question: What about the “Effective Half-life, Tumours” value ([3]; Patient 12) of the same compound?
Answer: 78.0 h

Question: And the “Biological Half-life, Kidneys” value ([3]; Patient 13)?
Answer: 31.6 hours

Question: And the “Biological Half-life, Salivary Glands” value ([3]; Patient 13)?
Answer: 57.8 hours

Question: And the “Effective Half-life, Kidneys” value ([3]; Patient 13)?
Answer: 26.4 h

Question: What about the “Effective Half-life, Salivary Glands” value ([3]; Patient 13) of the same compound?
Answer: 42.4 h

Question: What about the “Biological Half-life, Tumours” value ([3]; Patient 13) of the same compound?
Answer: 145.7 hours

Question: What about the “Effective Half-life, Tumours” value ([3]; Patient 13) of the same compound?
Answer: 76.2 h
